How the values were obtained:
[1] = Microsomal stability in human liver microsome assessed as intrinsic clearance; assay type: ADME; settings: liver microsomes, read-out: CLH
[2] = target: T1, ATP-dependent RNA helicase DHX33 (Mus musculus, UniProt Q80VY9); experiment: Inhibition of N-terminal/C-terminal 6x His-tagged wild type recombinant mouse DHX33 transformed in Escherichia coli BL21(DE3)pLysS cells
T1 sequence (Q80VY9 whole entry): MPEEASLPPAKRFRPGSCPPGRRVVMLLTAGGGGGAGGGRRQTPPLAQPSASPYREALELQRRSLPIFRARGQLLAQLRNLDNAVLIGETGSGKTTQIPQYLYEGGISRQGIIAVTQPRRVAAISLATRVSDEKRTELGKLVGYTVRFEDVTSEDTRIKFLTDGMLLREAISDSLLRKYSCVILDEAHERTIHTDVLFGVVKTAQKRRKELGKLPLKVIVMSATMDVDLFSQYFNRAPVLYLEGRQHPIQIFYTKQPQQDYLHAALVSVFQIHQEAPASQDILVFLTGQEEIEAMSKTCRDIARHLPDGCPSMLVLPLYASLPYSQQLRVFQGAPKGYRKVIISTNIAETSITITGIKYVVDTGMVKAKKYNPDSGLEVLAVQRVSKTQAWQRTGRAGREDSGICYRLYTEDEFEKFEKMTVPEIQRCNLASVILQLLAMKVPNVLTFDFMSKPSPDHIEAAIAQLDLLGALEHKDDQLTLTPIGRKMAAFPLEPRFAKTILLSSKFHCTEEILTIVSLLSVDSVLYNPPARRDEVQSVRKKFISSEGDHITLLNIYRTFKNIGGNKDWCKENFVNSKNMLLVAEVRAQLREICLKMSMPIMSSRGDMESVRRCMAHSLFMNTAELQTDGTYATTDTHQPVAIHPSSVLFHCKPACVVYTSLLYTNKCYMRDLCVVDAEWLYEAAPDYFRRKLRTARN

[3] = target: T2, Putative pre-mRNA-splicing factor ATP-dependent RNA helicase DHX32 (Homo sapiens, UniProt Q7L7V1); experiment: Inhibition of N-terminal thioredoxin-tagged human recombinant DHX32 transformed in Escherichia coli BL21(DE3)pLysS cells
T2 sequence (Q7L7V1 whole entry): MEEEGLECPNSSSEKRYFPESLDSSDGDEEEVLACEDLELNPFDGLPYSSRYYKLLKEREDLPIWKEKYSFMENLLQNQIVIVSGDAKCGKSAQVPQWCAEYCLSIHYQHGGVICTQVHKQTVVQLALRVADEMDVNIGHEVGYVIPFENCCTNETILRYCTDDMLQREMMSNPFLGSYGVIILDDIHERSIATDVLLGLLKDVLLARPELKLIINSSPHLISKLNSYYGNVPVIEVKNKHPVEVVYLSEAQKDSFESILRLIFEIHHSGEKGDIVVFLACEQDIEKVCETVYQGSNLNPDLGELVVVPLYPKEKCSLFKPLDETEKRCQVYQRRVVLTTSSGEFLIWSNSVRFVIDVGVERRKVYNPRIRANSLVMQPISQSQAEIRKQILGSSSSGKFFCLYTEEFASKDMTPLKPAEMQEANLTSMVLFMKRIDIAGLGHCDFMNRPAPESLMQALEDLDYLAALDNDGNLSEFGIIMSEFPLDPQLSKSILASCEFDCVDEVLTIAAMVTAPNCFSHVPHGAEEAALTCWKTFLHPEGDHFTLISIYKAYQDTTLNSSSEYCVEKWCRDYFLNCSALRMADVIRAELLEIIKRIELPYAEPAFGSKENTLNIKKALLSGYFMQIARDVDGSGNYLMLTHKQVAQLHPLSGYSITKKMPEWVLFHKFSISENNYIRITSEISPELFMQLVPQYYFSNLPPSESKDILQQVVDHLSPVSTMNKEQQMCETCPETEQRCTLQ

Nucleolar RNA helicase 2 = target: T3, Nucleolar RNA helicase 2 (Homo sapiens, UniProt Q9NR30); experiment: Inhibition of N-terminal thioredoxin-tagged human recombinant DDX21 transformed in Escherichia coli BL21(DE3)pLysS cells
T3 sequence (Q9NR30 whole entry): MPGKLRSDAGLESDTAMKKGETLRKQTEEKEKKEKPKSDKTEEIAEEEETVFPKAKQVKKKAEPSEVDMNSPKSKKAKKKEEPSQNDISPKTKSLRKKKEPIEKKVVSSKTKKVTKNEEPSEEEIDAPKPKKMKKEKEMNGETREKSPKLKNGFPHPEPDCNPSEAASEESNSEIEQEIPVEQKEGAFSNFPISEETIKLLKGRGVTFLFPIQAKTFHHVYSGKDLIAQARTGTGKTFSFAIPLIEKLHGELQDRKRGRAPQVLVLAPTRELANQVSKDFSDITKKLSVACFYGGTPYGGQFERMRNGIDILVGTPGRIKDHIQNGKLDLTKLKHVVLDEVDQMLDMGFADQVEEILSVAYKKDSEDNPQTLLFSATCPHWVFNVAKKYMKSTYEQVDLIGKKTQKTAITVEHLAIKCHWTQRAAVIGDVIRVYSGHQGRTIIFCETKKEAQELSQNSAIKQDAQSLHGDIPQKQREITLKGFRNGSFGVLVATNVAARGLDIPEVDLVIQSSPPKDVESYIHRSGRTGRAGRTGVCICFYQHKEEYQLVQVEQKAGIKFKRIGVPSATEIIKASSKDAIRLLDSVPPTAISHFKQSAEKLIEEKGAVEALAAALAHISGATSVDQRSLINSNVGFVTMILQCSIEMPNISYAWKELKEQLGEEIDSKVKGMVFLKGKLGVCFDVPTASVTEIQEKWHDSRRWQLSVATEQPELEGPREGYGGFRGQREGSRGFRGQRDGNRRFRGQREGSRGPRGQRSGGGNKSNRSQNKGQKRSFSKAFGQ

U-251 = experiment: Antiproliferative activity against human U-251MG cells overexpressing DHX33 assessed as inhibition of cell growth measured after 48 hrs by CCK-8 assay; assay type: functional, cell-based; settings: U-251, 48 h

CLint scaled [1]: 22.4 mL/min/kg
IC50 [2]: 19 nM
IC50 [3]: > 100000 nM
IC50 (Nucleolar RNA helicase 2): > 100000 nM
IC50 (U-251): 20 nM
SMILES: COc1ccc2nc(NC(=O)c3cc(C)n(-c4sc(C)cc4C#N)c3C)[nH]c2c1

Source: ChEMBL document CHEMBL5390231, “Development of small molecule inhibitors targeting RNA helicase DHX33 as anti-cancer agents” (Bioorg Med Chem Lett, 2023)
